Laboratory results from patent US6989375B2, “Enhanced expression of transgenes” (priority 1996, dated 2006).

Tested on: H1299 cells
Experiment: β-gal expression by X-gal staining after Ad/CMV/β-gal infection of agent-treated cells
Type: cell-based, human
Details: for Enhancement of β-gal gene expression after treatment with antineoplastic agent: wide range of drug concentrations, 24 h, infected with Ad/CMV/β-gal 48 hours after drug removal
Description: Gene Delivery Protocol: In vitro gene delivery was performed by incubating cells in six-well plates (Falcon Plastics, Lincoln Park, N.J.) for two hours with Adv/CMV/β-gal in appropriate medium supplemented with 2% FCS. The multiplicity of infection (MOI: number of viral particles per target cell) was based on cell counts of untreated wells. Fresh, complete medium with the appropriate concentration of FCS was then added to the wells at the end of the infection period and cells were then incubated for 20 hours at 37° C., 5% CO2. After washing the cells with ice cold PBS, the cells were fixed with ice-cold 1.25% glutaraldehyde and stained with X-gal (5-bromo-4-chloro-3-indolyl-β-d-galactoside; Gibco BRL) as previously described (MacGregor et al., 1987). The transduction efficiency by Adv/CMV/β-gal was determined by the percentage of positive stained cells (blue) for β-galactosidase activity (1000 cells counted per well).
Time Course and Dose Response: To determine the time course of enhancement, H1299 and H460 cells were seeded in 6-well plates (2×10^5 cells/2 mls/well). After an overnight incubation period (37° C., 5% CO2), the initial medium was replaced with freshly prepared media (2 ml) containing 0.062 μg/ml CDDP (Sigma Chemicals, St. Louis, Mo.) (CDDP was prepared fresh by dissolving in distilled water) and the cells were then incubated for 24 hours at 37° C., with 5% CO2. CDDP-treated cells were then washed twice with PBS and subsequently infected with Ad/CMV/β-gal (MOI=1 for H1299 and MOI=5 for H460) on days 0, 1, 2, 3, 4, 5 or 6 following CDDP removal, to determine the time point at which maximal enhancement of expression was occurring. To establish the dose of CDDP needed to produce maximum enhancement, the cells were treated with different concentrations of CDDP (serial, 1:4 dilutions, ranging from 4 μg/ml to 0.0002 μg/ml, 5 ml per 60 mm dish) for 24 hours and subsequently incubated with Ad/CMV/β-gal 48 hours after removal of CDDP. To study if exposure of malignant cells to different classes of antineoplastic agents would lead to a similar elevation of gene expression, H1299 cells were treated with vincristine (Eli Lilly and Co, Indianapolis, Ind.), methotrexate (Lederle Pharmaceuticals, Pearl River, N.Y.), 5-fluorouracil (SoloPak Laboratories, Elk Grove Village, Ill.), epotoside (Bristol Laboratories, Princeton, N.J.) and transplatin (the isomer of CDDP that has no anticancer activity, Sigma Chemical, St. Louis, Mo.) in the similar fashion as CDDP treatment and then infected with Ad/CMV/β-gal 48 hours after removal of drug-containing media. H1299 cells were treated with 2, 4, 8, or 16 Grey (Gy) of ionizing irradiation and then similarly infected 72 hours after irradiation. Untreated cells that were similarly infected, served as controls.

Compound | Enhancement of β-gal gene expression after treatment with antineoplastic agent | Enhancement of β-gal expression (FIG. 3) (drugs at 0.062 μg/ml or irradiated with 8 Greys, stained 24 hrs after infection)
N.N.[Cl][Pt+2][Cl] [transplatinum] | did not result in enhanced gene expression | –
O=c1[nH]cc(F)c(=O)[nH]1 [5-fluorouracil] | did not result in enhanced gene expression | –
CN(Cc1cnc2nc(N)nc(N)c2n1)c1ccc(C(=O)N[C@@H](CCC(=O)O)C(=O)O)cc1 [methotrexate] | did not result in enhanced gene expression | –
CC[C@]1(O)C[C@H]2CN(CCc3c([nH]c4ccccc34)[C@@](C(=O)OC)(c3cc4c(cc3OC)N(C=O)[C@H]3[C@@](O)(C(=O)OC)[C@H](OC(C)=O)[C@]5(CC)C=CCN6CC[C@]43[C@@H]65)C2)C1 [vincristine] | did not result in enhanced gene expression | –
COc1cc([C@@H]2c3cc4c(cc3[C@@H](O[C@@H]3O[C@@H]5CO[C@@H](C)O[C@H]5[C@H](O)[C@H]3O)[C@H]3COC(=O)[C@H]23)OCO4)cc(OC)c1O [VP-16, etoposide] | enhanced gene expression | Enhancement of β-gal expression was observed
